A word on the IC50: it is the point on the concentration scale where inhibition reaches its midpoint.

The text below walks through data of patent US10399974B2, “N2-phenyl-pyrido[3,4-D]pyrimidine-2, 8-diamine derivatives and their use as Mps1 inhibitors” (Cancer Research Technology Limited, priority 2014, dated 2019).

For this assay, the target named is full length MPS1 (Homo sapiens (Human), UniProt P33981). Put plainly: Measurement of Inhibition of MPS1 Kinase. The format is biochemical. Conditions: full length MPS1 12.5 nM or 3 nM, H236 peptide 5 μM, ATP 10 μM, 60 min at room temperature, Caliper EZ reader II; read-out: MPS1 IC50. As for the experimental part: Measurement of Inhibition of MPS1 Kinase
Sequence of full length MPS1 (P33981 whole entry): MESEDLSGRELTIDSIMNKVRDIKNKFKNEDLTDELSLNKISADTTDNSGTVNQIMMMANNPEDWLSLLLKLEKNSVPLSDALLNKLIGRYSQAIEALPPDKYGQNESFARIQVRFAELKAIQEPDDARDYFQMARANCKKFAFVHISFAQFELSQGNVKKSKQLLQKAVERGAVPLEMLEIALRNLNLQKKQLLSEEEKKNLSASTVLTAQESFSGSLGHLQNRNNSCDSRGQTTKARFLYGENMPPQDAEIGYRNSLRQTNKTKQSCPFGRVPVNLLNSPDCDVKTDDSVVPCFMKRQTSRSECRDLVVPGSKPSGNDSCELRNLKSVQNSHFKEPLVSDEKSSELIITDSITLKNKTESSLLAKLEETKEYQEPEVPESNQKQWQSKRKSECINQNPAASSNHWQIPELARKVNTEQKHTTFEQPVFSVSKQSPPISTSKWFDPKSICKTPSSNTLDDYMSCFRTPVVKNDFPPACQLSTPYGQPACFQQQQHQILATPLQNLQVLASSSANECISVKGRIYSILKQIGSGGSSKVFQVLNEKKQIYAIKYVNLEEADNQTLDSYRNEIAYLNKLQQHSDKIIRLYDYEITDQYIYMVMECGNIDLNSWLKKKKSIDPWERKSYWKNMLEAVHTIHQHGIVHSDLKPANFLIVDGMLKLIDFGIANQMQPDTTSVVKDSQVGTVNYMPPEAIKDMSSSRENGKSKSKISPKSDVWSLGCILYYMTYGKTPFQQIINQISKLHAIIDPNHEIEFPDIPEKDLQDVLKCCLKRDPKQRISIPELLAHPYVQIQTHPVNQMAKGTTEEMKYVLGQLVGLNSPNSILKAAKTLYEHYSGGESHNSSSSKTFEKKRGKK
(5 μM), ATP (10 μM), either DMSO (1% v/v) or the test compound (in the range 0.25 nM-100 μM in 1% DMSO) and assay buffer (50 mM HEPES (pH 7.0), 0.02% NaN3, 0.01% BSA, 0.1 mM Orthovandate, […], 1 μM DTT, Roche protease inhibitor). The reaction was carried out for 60 min at room temperature and stopped by the addition of buffer (10 μl) containing 20 mM EDTA, 0.05% (v/v) Brij-35, in 0.1M HEPES-buffered saline (Free acid, Sigma, UK). The plate was read on a Caliper EZ reader II (Caliper Life Sciences).
The reader provides a Software package (‘Reviewer’) which converts the peak heights into % conversion by measuring both product and substrate peak and also allows selection of control well which represent 0% and 100% inhibition, respectively. The % inhibition of the compounds is calculated relative to the means of selected control wells. IC50s are determined by testing the compounds at a range of concentrations from 0.25 nM-100 μM. The % inhibitions at each concentration are then fitted to a 4 parameter logistic fit: y=(a+((b−a)/(1+((c/x^d)))) where a=asym min, b=asym max, c=IC50 and d=hill coefficient
On to `CCOc1cc(-c2nncn2C)ccc1Nc1ncc2cc(C)nc(N3CCCC(OC)C3)c2n1` (racemic) [Example 47, Racemic-N-(2-ethoxy-4-(4-methyl-4H-1,2,4-triazol-3-yl)phenyl)-8-(3-methoxypiperidin-1-yl)-6-methylpyrido[3,4-d]pyrimidin-2-amine], for which the IC50 was found to be 6 nM.

For the compound `CCOc1cc(-c2nncn2C)ccc1Nc1ncc2cc(C)nc(N3CCOC(C)C3)c2n1` (racemic) [Example 48, Racemic-N-(2-ethoxy-4-(4-methyl-4H-1,2,4-triazol-3-yl)phenyl)-6-methyl-8-(2-methylmorpholino)pyrido[3,4-d]pyrimidin-2-amine], the IC50 was found to be 3 nM.

In the case of `COc1cc(-c2cnnn2C)ccc1Nc1ncc2cc(C)nc(NCC(C)(C)C)c2n1` [Example 1, N2-(2-methoxy-4-(1-methyl-1H-1,2,3-triazol-5-yl)phenyl)-6-methyl-N8-neopentylpyrido[3,4-d]pyrimidine-2,8-diamine], the IC50 turned out to be 0.5 nM.

In the case of `CCOc1cc(-c2nncn2C)ccc1Nc1ncc2cc(C)nc(NCC3(C)CCOC3)c2n1` (stereo not shown) [Example 2, N2-(2-ethoxy-4-(4-methyl-4H-1,2,4-triazol-3-yl)phenyl)-6-methyl-N8-((3-methyltetrahydrofuran-3-yl)methyl)pyrido[3,4-d]pyrimidine-2,8-diamine], the IC50 was found to be 2 nM.

As for `CCOc1cc(-c2nncn2C)ccc1Nc1ncc2cc(C)nc(N3CC(C)(C#N)C3)c2n1` [Example 3, 1-(2-((2-ethoxy-4-(4-methyl-4H-1,2,4-triazol-3-yl)phenyl)amino)-6-methylpyrido[3,4-d]pyrimidin-8-yl)-3-methylazetidine-3-carbonitrile], the IC50 amounted to 3 nM.

With `CCOc1cc(-c2nncn2C)ccc1Nc1ncc2cc(C)nc(N3CC4(CCOCC4)C3)c2n1` [Example 4, N-(2-ethoxy-4-(4-methyl-4H-1,2,4-triazol-3-yl)phenyl)-6-methyl-8-(7-oxa-2-azaspiro[3.5]nonan-2-yl)pyrido[3,4-d]pyrimidin-2-amine], the IC50 was 2 nM.

With `CCOc1cc(-c2nncn2C)ccc1Nc1ncc2cc(C)nc(N3CCC(C#N)CC3)c2n1` [Example 5, 1-(2-((2-ethoxy-4-(4-methyl-4H-1,2,4-triazol-3-yl)phenyl)amino)-6-methylpyrido[3,4-d]pyrimidin-8-yl)piperidine-4-carbonitrile], the half-inhibitory concentration (IC50) is 3 nM.

Regarding `CCOc1cc(-c2nncn2C)ccc1Nc1ncc2cc(C)nc(NC3CCOCC3)c2n1` [Example 6, N2-(2-ethoxy-4-(4-methyl-4H-1,2,4-triazol-3-yl)phenyl)-6-methyl-N8-(tetrahydro-2H-pyran-4-yl)pyrido[3,4-d]pyrimidine-2,8-diamine], the half-maximal inhibitory concentration (IC50) was 5 nM.

Regarding `CCOc1cc(-c2nnc(C)n2C)ccc1Nc1ncc2cc(C)nc(NCC(C)(C)C)c2n1` [Example 7, N2-(4-(4,5-dimethyl-4H-1,2,4-triazol-3-yl)-2-ethoxyphenyl)-6-methyl-N8-neopentylpyrido[3,4-d]pyrimidine-2,8-diamine], the half-maximal inhibitory concentration (IC50) turned out to be 4 nM.

Regarding `CCOc1cc(-c2nncn2C)ccc1Nc1ncc2cc(C)nc(NCC3(O)CCC3)c2n1` [Example 8, 1-(((2-((2-ethoxy-4-(4-methyl-4H-1,2,4-triazol-3-yl)phenyl)amino)-6-methylpyrido[3,4-d]pyrimidin-8-yl)amino)methyl)cyclobutanol], the IC50 is 3 nM.

For `CCOc1cc(-c2nncn2C)ccc1Nc1ncc2cc(C)nc(N3CC(C)(O)C3)c2n1` [Example 9, 1-(2-((2-ethoxy-4-(4-methyl-4H-1,2,4-triazol-3-yl)phenyl)amino)-6-methylpyrido[3,4-d]pyrimidin-8-yl)-3-methylazetidin-3-ol], the IC50 turned out to be 4 nM.

As for `COc1cc(-c2ccn(C)n2)ccc1Nc1ncc2cc(C)nc(NCC(C)(C)C)c2n1` [Example 11, N2-(2-methoxy-4-(1-methyl-1H-pyrazol-3-yl)phenyl)-6-methyl-N8-neopentylpyrido[3,4-d]pyrimidine-2,8-diamine], the IC50 was 36 nM.

With `COc1cc(-c2nccn2C)ccc1Nc1ncc2cc(C)nc(NCC(C)(C)C)c2n1` [Example 12, N2-(2-methoxy-4-(1-methyl-1H-imidazol-2-yl)phenyl)-6-methyl-N8-neopentylpyrido[3,4-d]pyrimidine-2,8-diamine], the IC50 was found to be 4 nM.

`COc1cc(-c2ccnn2C)ccc1Nc1ncc2cc(C)nc(NCC(C)(C)C)c2n1` [Example 13, N2-(2-methoxy-4-(1-methyl-1H-pyrazol-5-yl)phenyl)-6-methyl-N8-neopentylpyrido[3,4-d]pyrimidine-2,8-diamine]: the IC50 amounted to 18 nM.

In the case of `COc1cc(-c2ncco2)ccc1Nc1ncc2cc(C)nc(NCC(C)(C)C)c2n1` [Example 14, N2-(2-methoxy-4-(oxazol-2-yl)phenyl)-6-methyl-N8-neopentylpyrido[3,4-d]pyrimidine-2,8-diamine], the IC50 turned out to be 59 nM.

Consider `Cc1cc2cnc(Nc3ccc(-c4nncn4C)cc3OC(F)F)nc2c(NCC(C)(C)C)n1` [Example 15, N2-(2-(difluoromethoxy)-4-(4-methyl-4H-1,2,4-triazol-3-yl)phenyl)-6-methyl-N8-neopentylpyrido[3,4-d]pyrimidine-2,8-diamine], for which the IC50 amounted to 1 nM.

Take `COc1cc(-c2nnnn2C)ccc1Nc1ncc2cc(C)nc(NCC(C)(C)C)c2n1` [Example 16, N2-(2-methoxy-4-(1-methyl-1H-tetrazol-5-yl)phenyl)-6-methyl-N8-neopentylpyrido[3,4-d]pyrimidine-2,8-diamine]: the IC50 was 5 nM.

For the compound `COc1cc(-c2oc(C)nc2C)ccc1Nc1ncc2cc(C)nc(NCC(C)(C)C)c2n1` [Example 17, N2-(4-(2,4-dimethyloxazol-5-yl)-2-methoxyphenyl)-6-methyl-N8-neopentylpyrido[3,4-d]pyrimidine-2,8-diamine], the IC50 is 43 nM.

Consider `COc1cc(-c2ncc(C)n2C)ccc1Nc1ncc2cc(C)nc(NCC(C)(C)C)c2n1` [Example 18, N2-(4-(1,5-dimethyl-1H-imidazol-2-yl)-2-methoxyphenyl)-6-methyl-N8-neopentylpyrido[3,4-d]pyrimidine-2,8-diamine], for which the IC50 was found to be 4 nM.

In the case of `COc1cc(-c2cnc(C)n2C)ccc1Nc1ncc2cc(C)nc(N3CC(C)(C)C3)c2n1` [Example 19, N-(4-(1,2-dimethyl-1H-imidazol-5-yl)-2-methoxyphenyl)-8-(3,3-dimethylazetidin-1-yl)-6-methylpyrido[3,4-d]pyrimidin-2-amine], the IC50 came out at 5 nM.

`COc1cc(-c2cnc(C)n2C)ccc1Nc1ncc2cc(C)nc(N3CC4(CCOCC4)C3)c2n1` [Example 20, N-(4-(1,2-dimethyl-1H-imidazol-5-yl)-2-methoxyphenyl)-6-methyl-8-(7-oxa-2-azaspiro[3.5]nonan-2-yl)pyrido[3,4-d]pyrimidin-2-amine]: the IC50 was 12 nM.

Take `COc1cc(-c2nnc(C)n2C)ccc1Nc1ncc2cc(C)nc(NCC(C)(C)C)c2n1` [Example 21, N2-(4-(4,5-dimethyl-4H-1,2,4-triazol-3-yl)-2-methoxyphenyl)-6-methyl-N8-neopentylpyrido[3,4-d]pyrimidine-2,8-diamine]: the IC50 came to 1 nM.

As for `CCOc1cc(-c2nnc(C)n2C)ccc1Nc1ncc2cc(C)nc(N3CC(C)(C)C3)c2n1` [Example 22, N-(4-(4,5-dimethyl-4H-1,2,4-triazol-3-yl)-2-ethoxyphenyl)-8-(3,3-dimethylazetidin-1-yl)-6-methylpyrido[3,4-d]pyrimidin-2-amine], the IC50 stood at 20 nM.

Regarding `CCOc1cc(-c2nnc(C)n2C)ccc1Nc1ncc2cc(C)nc(N3CC4(CCOCC4)C3)c2n1` [Example 23, N-(4-(4,5-dimethyl-4H-1,2,4-triazol-3-yl)-2-ethoxyphenyl)-6-methyl-8-(7-oxa-2-azaspiro[3.5]nonan-2-yl)pyrido[3,4-d]pyrimidin-2-amine], the IC50 was found to be 4 nM.

`CCOc1cc(-c2nncn2CC)ccc1Nc1ncc2cc(C)nc(N3CC4(CCOCC4)C3)c2n1` [Example 24, N-(2-ethoxy-4-(4-ethyl-4H-1,2,4-triazol-3-yl)phenyl)-6-methyl-8-(7-oxa-2-azaspiro[3.5]nonan-2-yl)pyrido[3,4-d]pyrimidin-2-amine]: the IC50 came out at 2 nM.

On to `CCOc1cc(-c2nncn2CC)ccc1Nc1ncc2cc(C)nc(N3CC(C)(C)C3)c2n1` [Example 25, 8-(3,3-dimethylazetidin-1-yl)-N-(2-ethoxy-4-(4-ethyl-4H-1,2,4-triazol-3-yl)phenyl)-6-methylpyrido[3,4-d]pyrimidin-2-amine], for which the IC50 stood at 6 nM.

In the case of `CCOc1cc(-c2nncn2CC)ccc1Nc1ncc2cc(C)nc(NCC(C)(C)C)c2n1` [Example 26, N2-(2-ethoxy-4-(4-ethyl-4H-1,2,4-triazol-3-yl)phenyl)-6-methyl-N8-neopentylpyrido[3,4-d]pyrimidine-2,8-diamine], the IC50 was determined as 6 nM.

With `CCOc1cc(-c2nncn2C)ccc1Nc1ncc2cc(C)nc(N3CCC4(CCOC4)C3)c2n1` (stereo not shown) [Example 27, N-(2-ethoxy-4-(4-methyl-4H-1,2,4-triazol-3-yl)phenyl)-6-methyl-8-(2-oxa-7-azaspiro[4.4]nonan-7-yl)pyrido[3,4-d]pyrimidin-2-amine], the IC50 was 4 nM.
